According to the supplement of paper PMC11208160:
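Also: IS621 recombinase and bridge RNA in Escherichia coli cells.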

Experiment: recombinant barcode read abundance after kanamycin selection (control-corrected) (log10(CPM+1)); higher = more efficient recombination; sequences stand for … in AGTGCAGAGAAAATCGGCCAGTTTTCTCTGCCTGCAGTCCGCATGCCGT…AGATTTATGCAGCGGACTGCCTTTCTCCCAAAGTGATAAACCGGACAGTATCATGGACCGGTTTTCCCGGTAATCCGTATTTGCAAGGTTGGTTTCACT; site = the 11-nt target
In short: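 In a pooled screen in E. coli, targets were paired with target-binding loops of the IS621 bridge RNA. Each oligo carried a promoter, a target, a barcode and the first 104 bridge RNA bases driven by J23119, and was Gibson-cloned into a vector holding the remaining 73 bp and a T7-inducible recombinase before co-electroporation with a donor plasmid. Duplicate platings went onto chloramphenicol/ampicillin LB agar as the control or onto chloramphenicol/ampicillin/kanamycin with 0.1 mM IPTG. Recombination efficiency is the averaged, control-corrected count per million of barcodes at recombinant junctions, given as log10(CPM+1).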
In the case of “TACTAAGCTTGGGTTCTAACCTGTTGCCT (site TACTAAGCTAT)”, the “recombinant barcode read abundance (log10)” value is reported as 0.171.
For “TACTATGCTTGGGTTCTAACCTGTTGCGA (site TACTATGCTTC)”, the “recombinant barcode read abundance (log10)” value was 0.41.
With “TACTATGCTTGGGTTCTAACCTGTTGCGA (site TCCTATTCTTC)” the “recombinant barcode read abundance (log10)” value was 0.
In the case of “TACTATTCTTGGGTTCTAACCTGTTGCCT (site TACTATACTAG)”, the “recombinant barcode read abundance (log10)” value is reported as 0.0693.
For “TACTATTCTTGGGTTCTAACCTGTTGCCT (site TACTATCCTAG)”, the “recombinant barcode read abundance (log10)” value was 0.0345.
In the case of “TACTATTCTTGGGTTCTAACCTGTTGCCT (site TACTATGCTAG)”, the “recombinant barcode read abundance (log10)” value is reported as 0.175.
For “TACTATTCTTGGGTTCTAACCTGTTGCCT (site TACTATTCTAG)”, the “recombinant barcode read abundance (log10)” value was 0.263.
With “TACTGCTCTTGGGTTCTAACCTGTTGCTT (site TACAGCTCTAA)” the “recombinant barcode read abundance (log10)” value was 0.0305.
In the case of “TACTGCTCTTGGGTTCTAACCTGTTGCTT (site TACCGCTCTAA)”, the “recombinant barcode read abundance (log10)” value is reported as 0.213.
In the case of “TACTGCTCTTGGGTTCTAACCTGTTGCTT (site TACGGCTCTAA)”, the “recombinant barcode read abundance (log10)” value is reported as 0.0516.
In the case of “TACTGCTCTTGGGTTCTAACCTGTTGCTT (site TACTGCTCTAA)”, the “recombinant barcode read abundance (log10)” value is reported as 0.296.
For “TACTTAACTTGGGTTCTAACCTGTTGCCT (site TACTAAACTAG)”, the “recombinant barcode read abundance (log10)” value was 0.119.
For “TACTTAACTTGGGTTCTAACCTGTTGCCT (site TACTCAACTAG)”, the “recombinant barcode read abundance (log10)” value was 0.00663.
For “TACTTAACTTGGGTTCTAACCTGTTGCCT (site TACTGAACTAG)”, the “recombinant barcode read abundance (log10)” value was 0.0656.
In the case of “TACTTAACTTGGGTTCTAACCTGTTGCCT (site TACTTAACTAG)”, the “recombinant barcode read abundance (log10)” value is reported as 0.134.
With “TACTTCCCTTGGGTTCTAACCTGTTGCGT (site TACTTCCCTAC)” the “recombinant barcode read abundance (log10)” value was 1.87.
In the case of “TACTTCCCTTGGGTTCTAACCTGTTGCGT (site TACTTCTCTAG)”, the “recombinant barcode read abundance (log10)” value is reported as 0.0128.
For “TACTTCTCTTGGGTTCTAACCTGTTGCCT (site TACTTCCCTAC)”, the “recombinant barcode read abundance (log10)” value was 0.211.
In the case of “TACTTCTCTTGGGTTCTAACCTGTTGCCT (site TACTTCTCTAG)”, the “recombinant barcode read abundance (log10)” value is reported as 0.764.
With “TACTTGCCTTGGGTTCTAACCTGTTGCCT (site TAATTGCCTAG)” the “recombinant barcode read abundance (log10)” value was 0.0842.
In the case of “TACTTGCCTTGGGTTCTAACCTGTTGCCT (site TACTTGCCTAG)”, the “recombinant barcode read abundance (log10)” value is reported as 0.804.
For “TACTTGCCTTGGGTTCTAACCTGTTGCCT (site TAGTTGCCTAG)”, the “recombinant barcode read abundance (log10)” value was 0.653.
In the case of “TACTTGCCTTGGGTTCTAACCTGTTGCCT (site TATTTGCCTAG)”, the “recombinant barcode read abundance (log10)” value is reported as 0.182.
In the case of “TAGAACTCTTGGGTTCTAACCTGTTGCCA (site TAGAACTCTAG)”, the “recombinant barcode read abundance (log10)” value is reported as 0.254.
In the case of “TAGAACTCTTGGGTTCTAACCTGTTGCCA (site TAGAACTCTCG)”, the “recombinant barcode read abundance (log10)” value is reported as 0.23.
In the case of “TAGAACTCTTGGGTTCTAACCTGTTGCCA (site TAGAACTCTGG)”, the “recombinant barcode read abundance (log10)” value is reported as 0.0926.
With “TAGAACTCTTGGGTTCTAACCTGTTGCCA (site TAGAACTCTTG)” the “recombinant barcode read abundance (log10)” value was 0.193.
In the case of “TAGAAGACTTGGGTTCTAACCTGTTGCTA (site TAGAAGACTAA)”, the “recombinant barcode read abundance (log10)” value is reported as 0.115.
With “TAGAAGACTTGGGTTCTAACCTGTTGCTA (site TAGAAGACTCA)” the “recombinant barcode read abundance (log10)” value was 0.487.
With “TAGAAGACTTGGGTTCTAACCTGTTGCTA (site TAGAAGACTGA)” the “recombinant barcode read abundance (log10)” value was 0.155.
For “TAGAAGACTTGGGTTCTAACCTGTTGCTA (site TAGAAGACTTA)”, the “recombinant barcode read abundance (log10)” value was 1.55.
With “TAGAAGACTTGGGTTCTAACCTGTTGCTG (site TAGAAGACTAA)” the “recombinant barcode read abundance (log10)” value was 0.128.
With “TAGAAGACTTGGGTTCTAACCTGTTGCTG (site TAGAAGACTCA)” the “recombinant barcode read abundance (log10)” value was 2.38.
With “TAGAAGACTTGGGTTCTAACCTGTTGCTG (site TAGAAGACTGA)” the “recombinant barcode read abundance (log10)” value was 0.315.
For “TAGAAGACTTGGGTTCTAACCTGTTGCTG (site TAGAAGACTTA)”, the “recombinant barcode read abundance (log10)” value was 0.639.
For “TAGAAGCCTTGGGTTCTAACCTGTTGCTA (site TAGAAGCCTTA)”, the “recombinant barcode read abundance (log10)” value was 0.463.
With “TAGAAGCCTTGGGTTCTAACCTGTTGCTA (site TAGAAGGCTTA)” the “recombinant barcode read abundance (log10)” value was 0.21.
In the case of “TAGAAGGCTTGGGTTCTAACCTGTTGCAT (site TAGAAGGCTAA)”, the “recombinant barcode read abundance (log10)” value is reported as 0.162.
With “TAGAAGGCTTGGGTTCTAACCTGTTGCAT (site TAGAAGGCTAC)” the “recombinant barcode read abundance (log10)” value was 0.0752.
With “TAGAAGGCTTGGGTTCTAACCTGTTGCAT (site TAGAAGGCTAG)” the “recombinant barcode read abundance (log10)” value was 0.161.
In the case of “TAGAAGGCTTGGGTTCTAACCTGTTGCAT (site TAGAAGGCTAT)”, the “recombinant barcode read abundance (log10)” value is reported as 1.97.
With “TAGAATCCTTGGGTTCTAACCTGTTGCAT (site TAGAATCCTAT)” the “recombinant barcode read abundance (log10)” value was 0.104.
For “TAGAATCCTTGGGTTCTAACCTGTTGCAT (site TAGAATCCTCT)”, the “recombinant barcode read abundance (log10)” value was 0.102.
